Common to all, as to type: in vivo, C57BL6 mice
In one experiment the test system is gut microbiota. In words: Gut microbiota diversity (Shannon alpha diversity) from shotgun metagenomic sequencing of stool of treated mice. As to conditions: stools at end. Here is the method:
(§1) In the methods described for each of these examples, C57BL6 mice at 6 weeks of age were allowed to be appropriately acclimated before the start of the change in diet and treatments. For Experiment 1 (Example 1), thirty-two mice were evenly distributed into four groups with Group 1 as the control diet, no treatment, Group 2 as the high-fat diet, treat with DMSO control, Group 3 as the high-fat diet, treated with 12.5 μg of Ascr #7/mouse per injection (0.5 mg/kg dose assuming a 25 gm mouse), Group 4 as the high-fat diet, treated with 4.1 μg Ascr #9/mouse per injection (0.164 mg/kg dose assuming a 25 gm mouse). […]
(§2) DNA was extracted using the Qiagen MagAttract PowerSoil DNA KF kit (Formerly MO Bio PowerSoil DNA Kit) using a KingFisher robot. DNA quality was evaluated visually via gel electrophoresis and quantified using a Qubit 3.0 fluorometer (Thermo-Fischer, Waltham, Mass., USA). […]
(§3) Paired-end sequencing (150 bp×2) was done on a NextSeq 500 in medium-output mode. Shotgun metagenomic sequence reads were processed with the Sunbeam pipeline. […] Processing took part in four steps: adapter removal, read trimming, low-complexity reads removal, and host-sequence read removal. […] Low-complexity sequences were detected with Komplexity v0.3.6.
(§4) The remaining reads were taxonomically classified using Kraken2 with the MiniKraken2_v1 database. […]

The test system of experiment [1] is Bifidobacterium (e.g., Bifidobacterium catenulatum). The experiment is described as follows: Differential abundance of Bifidobacterium in gut microbiota of treated mice (stool sequencing). As to conditions: stools at end. Here is the method:
as §1, §2, §3, §4

The next experiment relates to Akkermansia. In words: Differential abundance of Akkermansia in gut microbiota of treated mice (stool sequencing). To be noted: Experiment 1, mice, 31 days of treatment, stools at end, vs control (FIG. 9). Here is the method: as §1, §2, §3, §4
Another experiment has as its system Adlercreutzia. In words: Differential abundance of Adlercreutzia in gut microbiota of treated mice (stool sequencing). To be noted: Experiment 1, mice, 31 days of treatment, stools at end, vs control (FIG. 9). Here is the method: as §1, §2, §3, §4
Experiment [2] is described as follows: Stool consistency (Bristol Stool Chart) of treated mice. As to conditions: Experiment 3, mice, 12.5 μg/mouse IP, stools at end, vs untreated control (FIG. 10). Here is the method:
For Experiment 3, ten mice were assigned Group 7 to be treated with DMSO control. Eight mice were assigned to Group 8 to be treated with 12.5 μg of Ascr #7/mouse per injection (0.5 mg/kg dose assuming a 25 gm mouse). Nine mice were assigned to Group 9 to be treated with 12.5 μg of Compound 1/mouse per injection (0.5 mg/kg dose assuming a 25 gm mouse). To make the master stocks, Ascr #7 and Compound 1 were dissolved in DMSO to make 10 μg/uL of the Ascr #7 and Compound 1 master stocks and 12.5 μL of each master stocks were aliquoted into glass vials for each day of injection. Mice from each group were IP injected three times a week for 3 weeks and one day for a total of 10 injections. On each day of IP injection, 987.5 μL of ultra-pure water is added to each master stocks to make 0.125 μg/uL of Ascr #7 and Compound 1 working stocks and 100 μL of each was IP injected into mice. As will be described in greater detail below, Compound 1 refers to the ascaroside derisive:
The methods and compositions described herein may also be used to treat constipation. Constipation, which accompanies various diseases, may be a symptom of underlying defects in either transit of fecal mass through the gut or defecation, a commonly diagnosed functional gastrointestinal disorder. […]

Each structure is given as a SMILES string. Entries after “also recorded” stand apart in the source; their conditions may differ.

`C[C@H](CC/C=C/C(=O)O)O[C@@H]1O[C@@H](C)[C@H](O)C[C@H]1O` [Ascr #7]: the “alpha diversity of the gut microbiota (Shannon's diversity index)” value in the experiment on gut microbiota (Experiment 3, mice, 12.5 μg/mouse IP three times a week, 10 injections, vs DMSO control (FIG. 3)) is “increased alpha diversity; also recorded: substantial increase in diversity”. Besides, in experiment [1] (Experiment 1, mice, 31 days of treatment, vs control (FIG. 9)), the “amount of Bifidobacter in the gut microbiota” value is on record as “increases”. In addition, the “amount of Bifidobacterium catenulatum in the gut microbiota” value in experiment [1] (Experiment 3, mice, vs control (FIG. 8)) is on record as “specific increase; also recorded: increased significantly”. In addition, in the experiment with Akkermansia, the “amount of Akkermansia in the gut microbiota” value is recorded as “increases; also recorded: increase in the overall amount”. Moreover, in the experiment with Adlercreutzia, the “amount of Adlercreutzia in the gut microbiota” value is reported as “increases; also recorded: increase in the overall amount”. Further, the “proportion of feces with Type 4 stools (smooth and soft, Bristol Stool Chart)” value in experiment [2] is recorded as “significantly higher proportion of feces with Type 4 stools”.
For `C[C@H](CCC(=O)O)O[C@@H]1O[C@@H](C)[C@H](O)C[C@H]1O` [Ascr #9], in the experiment with gut microbiota (Experiment 1, high-fat diet mice, 4.1 μg/mouse IP three times a week for 31 days, vs control (FIG. 4)), the “alpha diversity of the gut microbiota (Shannon's diversity index)” value is “increase in alpha diversity; also recorded: increased”. The “amount of Akkermansia in the gut microbiota” value with Akkermansia is listed as “increase in the overall amount”. For the same molecule, the “amount of Adlercreutzia in the gut microbiota” value with Adlercreutzia is listed as “increase in the overall amount”.
In the case of `C[C@H](CC/C=C/C(=O)OC(C)(C)C)O[C@@H]1O[C@@H](C)[C@H](O)C[C@H]1O` [Compound 1, tert-butyl (2E,6R)-6-{[(2R,3R,5R,6S)-3,5-dihydroxy-6-methyloxan-2-yl]oxy}hept-2-enoate], the “proportion of feces with Type 4 stools (smooth and soft, Bristol Stool Chart)” value in experiment [2] is “significantly higher proportion of feces with Type 4 stools”.
